Where two headings read alike, the source gives them in different places.
Tests used:
[1] = system: H. pylori ATCC 26695 strain; experiment: MIC by broth microdilution and FICI of 1:1 combinations, strain 26695; format: cell-based; conditions: Helicobacter pylori, ATCC26695, 72 h, combinations 1:1 w/w given as inhibitor a/inhibitor b
Experimental: (§1) Minimal inhibitory concentration of inhibitors was determined by an in vitro broth microdilution assay (Knezevic et al. [2018]). Briefly, double-strength Brain heart infusion broth (BHI) was supplemented with yeast extract (2.5%), horse serum (5%), and IsoVitaleX (1%). In each well, twofold serial dilutions of inhibitors (from 1000 µg/mL to 7.8 μg/mL in a final volume) and an equal volume of inoculated double-strength BHI were added (approx. 1 × 10^6 CFU/mL in final volume). Amoxicillin was used as a positive control, and distilled water as a negative control. The microtiter plates were incubated at 37 °C under microaerobic conditions in moist atmosphere for 3 days. […] During the incubation, in wells with viable H. pylori urease produced by the bacteria converted urea into ammonia and carbon dioxide, changing the pH and color of a phenol red indicator in the medium (from orange to purple). The plates were examined visually for color change and OD560 was measured after 4 h in order to determine presence/absence of growth. The MIC is defined as the lowest concentration of a compound that inhibits visible growth, compared with the growth in the controls (in this case defined as presence/absence of color change). All experiments were performed in duplicate and in 3–6 independent tests.
(§2) In order to determine possible additive or even synergistic effect of inhibitors, a method with calculation of the fractional inhibitory concentration index (FICI) was used (Pillai et al, [2005]). A combination of two inhibitors was applied (w/w 1:1) in the final concentration 1 mg/mL and subsequently diluted. The FICI index was calculated as FICI = (MICA/MICa) + (MICB/MICb), where MICA = concentration of inhibitor a in combination with inhibitor b; MICa = MIC of inhibitor a, applied as a single agent; MICB = concentration of inhibitor b in combination with inhibitor a; and MICb = MIC of inhibitor b applied as a single agent. The results were interpreted as a synergistic effect if the FICI was ≤ 0.5; as an additive effect if 0.5 < FICI ≤ 1; an indifferent effect if 1 < FICI ≤ 4; and as an antagonistic effect if the FICI was > 4 (Pillai et al. [2005]).

H. pylori SS1 strain = experiment: MIC by broth microdilution and FICI of 1:1 combinations, strain SS1; format: cell-based; conditions: Helicobacter pylori, SS1STRAIN, 72 h, combinations 1:1 w/w given as inhibitor a/inhibitor b
Experimental: as §1, §2

[2] = system: H. pylori 26695 strain cells; experiment: Cellular uptake (accumulation test), LC–MS detection; format: cell-based
Experimental: Formycin A, formycin B, and metronidazole were quantified through the ultra-performance liquid chromatography–tandem mass spectrometry. Samples were analyzed on Waters Xevo TQ-S with a standard ESI ion source coupled to Waters Acquity I-class UPLC.
Calibration samples were prepared by spiking blank growth medium F12 by the tested inhibitor, formycin A, formycin B, or metronidazole solutions. Internal standards (IS) were used to improve the accuracy of the method. To each pipetted sample from a particular experiment, the same amount of IS was added. As a detector response, we considered the ratio of the analyte peak area (variable) to the internal standard peak area (constant). This allows compensation for signal changes due to a possible instability of the ion source. If the ionization efficiency changes, both compounds are affected, but the surface peak ratio is maintained. […] Samples and calibrators were precipitated using IS solution and injected on the instrument.
Calibration curves were acquired by plotting the concentration of the standards against the ratio of the analyte peak area to the IS peak area. The calibration curve for FA in low concentration (35 μM) consisted of 7 samples in the range from 0.23 to 37.5 μM (R^2 = 0.997); for FA in high concentration (350 μM), the curve consisted of 6 samples in the range from 3.7 to 374.7 μM (R^2 = 0.995); for FB in low concentration (35 μM), the curve consisted of 7 samples in the range from 0.291 to 46.5 μM (R^2 = 0.999); for FB in high concentration (350 μM), the curve consisted of 7 samples in the range from 2.91 to 465.0 μM (R^2 = 0.999); and for MTZ (0.5 μM), the calibration curve was 8 samples in the range from 0.584 to 584.2 nM (R^2 = 0.995).
Chromatography was run on Waters Acquity BEH C18, 1.7 μm, 2.1 mm × 50 mm analytical column thermostated at 70 °C. The separations were done using 2.5 min gradient method. Phase A was 0.1% formic acid in MilliQ water; phase B was 0.1% formic acid in acetonitrile. For formycins the gradient started at 5% B and increased linearly to 50% B in 1.6 min; at 1.8 min it returned to the starting condition for column equilibration. For metronidazole the gradient started at 5% B and increased linearly to 50% B in 1.3 min; at 2.0 min it returned to the starting condition for column equilibration. The flow rate was 600 μL/min in both methods. The retention time of FA was 0.42 min, FB was 0.45 min (see Fig. 4a, b), and MTZ 0.88 min.

[3] = system: H. pylori 26695 strain cells; experiment: Cellular uptake (accumulation test), detection by inhibition of the target enzyme (AdSS or PNP); format: cell-based; conditions: 8 h
Experimental: Overnight cultures of H. pylori wild-type 26695 strain were grown by shaking (120 rpm) at 37 °C under microaerophilic conditions (5% O2, 10% CO2, 85% N2) in BHI medium (37 g/L) supplemented with 10% Fetal Bovine Serum and 1% Helicobacter pylori Selective Supplement. Cells were collected by centrifugation (5 min at 8000 × g at room temperature). The supernatant was decanted and the cell pellets were suspended in F12 medium (with L-glutamine and sodium bicarbonate) and centrifuged again. The supernatant was decanted again and cell pellets were resuspended in such a volume of F12 medium to obtain an OD600 of 4.0.
(§3) The accumulation test was carried out in 24-deep-well 2 mL flat-bottomed plates, all in a final volume of 1 mL. Three types of samples were used, generated by mixing the following components in a 1:1 ratio: (1) concentrated and resuspended cells in F12 medium, (2) a solution of the appropriate concentration of a test compound in F12 medium, (3) F12 medium.
The final concentrations of the tested compounds were 350 µM and 35 µM for formycin A and formycin B, and 35 μM for hadacidin. One set of three replicate samples was incubated at 37 °C, and the other set was incubated at 4 °C. […]
where Km and Vmax are the Michaelis constant and maximal velocity, respectively, and Ki is the inhibition constant of the tested inhibitor, in our case hadacidin. […] These values, together with velocity measured for any tested supernatant, Cinhibitor_start , and velocity measured when only F12 medium is present, v, are sufficient to determine inhibitor concentration, Ctested , present in a tested supernatant, using Eq. (4), which is obtained by the rearrangement of Eq. (2) and Eq. (3):4 Ctested=Cinhibitor_start1/vtested-1/v/1/vinhibitor_start-1/v
The formycin B uptake was studied in the same way, but instead of AdSS, PNP was used, since it is the target enzyme for this inhibitor. […] Specific activity is expressed as units per mg of protein (U/mg).

[4] = pKa values and ionic form at pH 7; format: physicochemical
From the text: Table 3 Partition coefficients of the neutral and ionized forms, and pKa values of the tested compounds, and of metronidazole used as a control in the cellular uptake studies. Partition coefficients of the ionic forms observed at pH 7 are marked bold | column: Ionic form at pH 7

[5] = ref Giziewicz and Shugar [1977], Wierzchowski and Shugar [1982], Bzowska et al. [1992] (formycins), Gottlieb and Shaw [2013] (hadacidin), cited from earlier work; for pKa (first value): Hellgren et al. [1995] (metronidazole)
[6] = target: T1, purine nucleoside phosphorylase (PNP) from H. pylori 26695 strain (Helicobacter pylori, UniProt P56463); experiment: biochemical
Experimental: (§4) Kinetic experiments with PNP, and also with AdSS, described in the section “AdSS and PNP inhibition detection of cellular uptake”, were performed on a double-beam UV/VIS spectrophotometer Cary 100, with thermostated Peltier cell holders (Varian: Agilent Technologies, Mulgrave, Vic., Australia). The inhibition constant was determined as the adjustable parameter in the global fitting of the competitive inhibition model to all data obtained, using the GraphPad Prism program (GraphPad Software, San Diego, CA, USA).

[7] = system: H. pylori 26695 strain cells; experiment: Cellular uptake (accumulation test), UV absorption detection; conditions: 8 h
Experimental: Cellular uptake of PNP inhibitors, formycin A (FA) and formycin B (FB), and the control compound, metronidazole (MTZ), was determined using the approach described by Zhou et al. ([2015]) for E. coli and Pseudomonas aeruginosa, adapted to conditions suitable for H. pylori cell growth. This method measures the change of extracellular drug concentration using LC–MS detection.
Overnight cultures of H. pylori wild-type 26695 strain were grown by shaking (120 rpm) at 37 °C under microaerophilic conditions (5% O2, 10% CO2, 85% N2) in BHI medium (37 g/L) supplemented with 10% Fetal Bovine Serum and 1% Helicobacter pylori Selective Supplement. Cells were collected by centrifugation (5 min at 8000 × g at room temperature). The supernatant was decanted and the cell pellets were suspended in F12 medium (with L-glutamine and sodium bicarbonate) and centrifuged again. The supernatant was decanted again and cell pellets were resuspended in such a volume of F12 medium to obtain an OD600 of 4.0. F12 medium was selected for experiments because it is a minimal medium of defined composition and is suitable for measurements on MS.
as §3
The final concentrations of the tested compounds were 350 µM and 35 µM for formycin A and formycin B, and 35 μM for hadacidin. One set of three replicate samples was incubated at 37 °C, and the other set was incubated at 4 °C. Samples were taken at the start of the accumulation test, to check the concentration of the inhibitor at the start (named “Inhibitor_start,” “H. pylori + inhibitor_start”), then after 4 and 8 h of incubation at both temperatures. The obtained samples were centrifuged at 8000 × g for 5 min at 4 °C. The supernatant was collected for the LC–MS analysis (used for MTZ, FA, and FB uptake), UV absorption measurements (used for FA and FB uptake), and AdSS and PNP inhibition analysis (used for Hada and FB uptake).
For cellular uptake of formycin A and formycin B, UV absorption was additionally used as a detection method. […] Nevertheless, there is some overlap between these spectra, and because of that, selective observation of formycins absorption is not possible. Moreover, during the cellular uptake experiment, H. pylori cells may take some UV absorbing nutrients from the medium, as well as release some metabolic products that also absorb in the UV region. Therefore, in the cellular uptake experiment, correction for absorption caused by these processes was introduced by including samples containing just H. pylori cells in F12 medium, incubated for 4 and 8 h at both temperatures, and subtracting absorption spectra of such supernatants.
Samples in this case were the same as those evaluated by the LC–MS detection and by analysis of the inhibition of the PNP activity. The UV spectra of the supernatants, from experiments with 350 μM and at 35 μM inhibitor concentration, diluted with water 10 times and 2 times, respectively (with the absorbance of F12 medium, 10 times or 2 times diluted with water, as a reference), were measured. The absorbance at the most suitable wavelengths was used to calculate the formycin concentration. […]

P. falciparum PNP = system: P. falciparum PNP; parameters: method as in Dziekan et al. [2019]; conditions: solution studies; ref Dziekan et al. [2019]; cited from earlier work
[8] = target: adenylosuccinate synthetase (AdSS) from H. pylori 26695 strain; parameters: method as in Bubić et al. [2018]; conditions: H. pylori 26695 strain AdSS; ref Bubić et al. [2018]; cited from earlier work
[9] = target: T1, purine nucleoside phosphorylase (PNP) from H. pylori 26695 strain; conditions: m^7Guo as variable substrate, global fit, 25 °C, pH 7.0, 50 mM phosphate
Experimental: as §4

E. coli PNP = system: E. coli PNP; parameters: method as in Bzowska et al. [1992]; conditions: ref Bzowska et al. [1992]; cited from earlier work
[10] = target: T1, purine nucleoside phosphorylase (PNP) from H. pylori 26695 strain; parameters: made in house; method as in Narczyk et al. [2018]; conditions: H. pylori 26695 strain PNP; ref Narczyk et al. [2018]; cited from earlier work
[11] = H. pylori ATCC 26695, geometrical mean of repetitions
[12] = H. pylori SS1, geometrical mean of repetitions
[13] = starting concentration 35 µM, LC–MS, 8 h incubation, Eq. (1)
[14] = starting concentration 350 µM, LC–MS, 8 h incubation, Eq. (1)
[15] = starting concentration 350 µM, UV absorption at 294 nm

T1 sequence (P56463 whole entry): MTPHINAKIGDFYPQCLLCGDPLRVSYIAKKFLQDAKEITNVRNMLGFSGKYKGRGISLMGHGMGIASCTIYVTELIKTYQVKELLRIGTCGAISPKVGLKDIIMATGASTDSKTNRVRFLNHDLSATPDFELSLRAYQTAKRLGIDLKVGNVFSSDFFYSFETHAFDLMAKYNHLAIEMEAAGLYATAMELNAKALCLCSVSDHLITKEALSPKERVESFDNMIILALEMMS

SMILES | MIC [1, 11] | MIC ([1]; H. pylori ATCC 26695) | MIC (H. pylori SS1 strain; [12]) | MIC (H. pylori SS1 strain; H. pylori SS1) | Intracellular accumulation [2, 13] | Intracellular accumulation [2, 14] | Ionic form at pH 7 [4] | pKa (first value) [5] | pKa [5] | Intracellular accumulation [7, 15] | also measured
O=c1[nH]cnc2c([C@@H]3O[C@H](CO)[C@@H](O)[C@H]3O)n[nH]c12 [Formycin B] | > 1000 µg/mL | > 3.7 mM | ≥ 397 µg/mL | ≥ 1.5 mM | 2.5 ± 0.5 µM | 7.1 ± 2.5 µM | Neutral | 0.9 | 8.6 | 1.0 ± 7.4 µM | Intracellular accumulation ([2]; starting concentration 350 µM, LC–MS, 8 h incubation, Eq. (1), listed as formycin B): up to 7.1 ± 2.5 µM; Intracellular accumulation ([3]; starting concentration 350 µM, PNP inhibition detection): 20.2 ± 34.0 µM; Ki [6]: 0.96 ± 0.08 µM; Intracellular accumulation ([7]; starting concentration 350 µM, UV absorption at 279 nm): 3.0 ± 9.2 µM
C=C[C@H]1C[N@@]2CC[C@H]1C[C@H]2[C@H](O)c1ccnc2ccc(OC)cc12 [quinine] |  |  |  |  |  |  |  |  |  |  | Binding affinity to P. falciparum PNP (P. falciparum PNP): low nanomolar affinity
O=CN(O)CC(=O)O [Hadacidin] | > 1000 µg/mL | > 8.4 mM | > 1000 µg/mL | > 8.4 mM |  |  | Anion | 3.5 | 9.4 |  | Intracellular accumulation ([3]; starting concentration 35 µM, AdSS inhibition detection): 4.9 ± 4.1 µM; Intracellular accumulation ([3]; starting concentration 35 µM, AdSS inhibition detection, listed as hadacidin): does not enter H. pylori cells; Ki [8]: 0.19 ± 0.02 µM
C[n+]1cn([C@@H]2O[C@H](CO)[C@@H](O)[C@H]2O)c2nc(N)[nH]c(=O)c21 [m^7Guo, 7-Methylguanosine] |  |  |  |  |  |  |  |  |  |  | Km [9]: 0.0463 ± 0.0044 mM; Vmax [9]: 12.5 ± 0.5 µmol/min/mg
Nc1ncnc2c([C@@H]3O[C@H](CO)[C@@H](O)[C@H]3O)n[nH]c12 [Formycin A] | ≥ 870 µg/mL | ≥ 3.1 mM | > 1000 µg/mL | > 3.5 mM | 15.9 ± 0.5 µM | 29.5 ± 5.3 µM | Neutral | 4.6 | 9.7 | 35.2 ± 7.1 µM | Intracellular accumulation ([2]; starting concentration 350 µM, LC–MS, 8 h incubation, Eq. (1), listed as formycin A): up to 29.5 ± 5.3 µM; Ki (E. coli PNP): 5.3 ± 0.4 µM; Ki [10]: 14 ± 1.7 µM; Intracellular accumulation ([7]; starting concentration 35 µM, UV absorption at 305 nm): 6.7 ± 0.6 µM; Intracellular accumulation ([7]; starting concentration 350 µM, UV absorption at 305 nm, Eq. (1), no correction for metabolites): 22.2 ± 7.6 µM
Cc1ncc([N+](=O)[O-])n1CCO [Metronidazole] |  |  |  |  |  |  | Neutral |  |  |  | Intracellular accumulation ([2]; Helicobacter pylori, 8 h, 0.5 µM): 0.37 ± 0.01 µM

Source: paper PMC8502122, “A comprehensive method for determining cellular uptake of purine nucleoside phosphorylase and adenylosuccinate synthetase inhibitors by H. pylori” (Applied Microbiology and Biotechnology, 2021)
